Measurements: ChEMBL document CHEMBL2417435, “The discovery of potent blockers of the canonical transient receptor channels, TRPC3 and TRPC6, based on an anilino-thiazole pharmacophore” (Bioorg Med Chem Lett, 2013)

Columns and labels:
[1] = molecular target: T1, Short transient receptor potential channel 6 (Homo sapiens, UniProt Q9Y210); test: Inhibition of human recombinant TRPC6 expressed in HEK293-MSRII cells assessed as carbachol-stimulated Ca2+/Na+ influx after 10 mins by FLIPR assay; assay type: cell-based
T1 sequence (Q9Y210 whole entry): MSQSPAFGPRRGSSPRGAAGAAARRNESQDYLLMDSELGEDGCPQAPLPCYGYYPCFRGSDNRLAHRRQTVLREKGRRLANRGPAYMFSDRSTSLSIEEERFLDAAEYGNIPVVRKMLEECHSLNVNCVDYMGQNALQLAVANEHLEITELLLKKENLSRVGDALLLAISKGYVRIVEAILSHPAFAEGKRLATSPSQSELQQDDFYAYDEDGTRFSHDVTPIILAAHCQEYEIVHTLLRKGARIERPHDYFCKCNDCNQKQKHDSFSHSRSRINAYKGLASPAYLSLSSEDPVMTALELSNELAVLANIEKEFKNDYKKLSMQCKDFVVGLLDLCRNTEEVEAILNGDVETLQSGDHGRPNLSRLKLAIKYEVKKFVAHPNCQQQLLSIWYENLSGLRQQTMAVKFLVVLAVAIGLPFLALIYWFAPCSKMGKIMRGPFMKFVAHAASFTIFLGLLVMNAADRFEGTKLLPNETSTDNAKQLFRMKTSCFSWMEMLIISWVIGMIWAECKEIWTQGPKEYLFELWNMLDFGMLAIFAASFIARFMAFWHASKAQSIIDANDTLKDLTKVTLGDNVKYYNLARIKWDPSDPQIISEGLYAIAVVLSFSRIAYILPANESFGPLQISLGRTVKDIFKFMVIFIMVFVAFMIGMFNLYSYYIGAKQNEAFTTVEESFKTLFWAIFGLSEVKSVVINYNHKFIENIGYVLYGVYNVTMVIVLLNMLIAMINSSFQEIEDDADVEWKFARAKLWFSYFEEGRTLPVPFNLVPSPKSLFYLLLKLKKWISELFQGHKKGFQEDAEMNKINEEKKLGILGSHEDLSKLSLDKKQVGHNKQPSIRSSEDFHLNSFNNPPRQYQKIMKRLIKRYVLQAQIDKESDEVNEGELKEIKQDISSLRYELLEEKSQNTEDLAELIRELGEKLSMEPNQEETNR

[2] = molecular target: T2, Short transient receptor potential channel 3 (Homo sapiens, UniProt Q13507); test: Inhibition of human recombinant TRPC3 expressed in HEK293-MSRII cells assessed as carbachol-stimulated Ca2+/Na+ influx after 10 mins by FLIPR assay; assay type: cell-based
T2 sequence (Q13507 whole entry): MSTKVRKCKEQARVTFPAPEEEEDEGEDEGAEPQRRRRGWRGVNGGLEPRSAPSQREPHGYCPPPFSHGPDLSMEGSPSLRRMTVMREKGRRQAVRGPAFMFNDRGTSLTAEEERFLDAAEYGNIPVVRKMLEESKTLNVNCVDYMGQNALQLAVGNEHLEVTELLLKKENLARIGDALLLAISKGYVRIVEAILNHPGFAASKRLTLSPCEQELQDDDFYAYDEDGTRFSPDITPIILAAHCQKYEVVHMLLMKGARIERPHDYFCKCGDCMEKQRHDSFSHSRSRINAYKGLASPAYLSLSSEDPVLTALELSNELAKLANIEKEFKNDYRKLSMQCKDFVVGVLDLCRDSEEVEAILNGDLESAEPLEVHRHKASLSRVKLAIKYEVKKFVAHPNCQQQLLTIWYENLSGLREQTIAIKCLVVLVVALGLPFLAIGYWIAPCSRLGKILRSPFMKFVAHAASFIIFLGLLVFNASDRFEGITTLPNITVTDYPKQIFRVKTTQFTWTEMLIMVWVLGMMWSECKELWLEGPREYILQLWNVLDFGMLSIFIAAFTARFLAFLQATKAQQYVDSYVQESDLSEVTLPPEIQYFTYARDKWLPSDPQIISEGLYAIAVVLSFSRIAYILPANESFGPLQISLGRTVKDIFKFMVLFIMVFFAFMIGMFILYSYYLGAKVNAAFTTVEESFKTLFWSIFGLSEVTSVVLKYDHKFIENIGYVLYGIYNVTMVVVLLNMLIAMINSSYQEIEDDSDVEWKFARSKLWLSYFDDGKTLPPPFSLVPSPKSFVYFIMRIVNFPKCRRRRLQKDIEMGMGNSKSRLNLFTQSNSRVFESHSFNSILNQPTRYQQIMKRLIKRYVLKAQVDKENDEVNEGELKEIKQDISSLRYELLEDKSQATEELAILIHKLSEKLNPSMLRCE

[3] = molecular target: Sodium channel protein type 5 subunit alpha (Homo sapiens, UniProt Q14524); test: Inhibition of NaV1.5 channel (unknown origin) by patch express-based electrophysiology assay
[4] = molecular target: Transient receptor potential cation channel subfamily V member 4 (Homo sapiens, UniProt Q9HBA0); test: Inhibition of TRPV4 (unknown origin) by FLIPR assay
Sequence of Transient receptor potential cation channel subfamily V member 4 (Q9HBA0 whole entry): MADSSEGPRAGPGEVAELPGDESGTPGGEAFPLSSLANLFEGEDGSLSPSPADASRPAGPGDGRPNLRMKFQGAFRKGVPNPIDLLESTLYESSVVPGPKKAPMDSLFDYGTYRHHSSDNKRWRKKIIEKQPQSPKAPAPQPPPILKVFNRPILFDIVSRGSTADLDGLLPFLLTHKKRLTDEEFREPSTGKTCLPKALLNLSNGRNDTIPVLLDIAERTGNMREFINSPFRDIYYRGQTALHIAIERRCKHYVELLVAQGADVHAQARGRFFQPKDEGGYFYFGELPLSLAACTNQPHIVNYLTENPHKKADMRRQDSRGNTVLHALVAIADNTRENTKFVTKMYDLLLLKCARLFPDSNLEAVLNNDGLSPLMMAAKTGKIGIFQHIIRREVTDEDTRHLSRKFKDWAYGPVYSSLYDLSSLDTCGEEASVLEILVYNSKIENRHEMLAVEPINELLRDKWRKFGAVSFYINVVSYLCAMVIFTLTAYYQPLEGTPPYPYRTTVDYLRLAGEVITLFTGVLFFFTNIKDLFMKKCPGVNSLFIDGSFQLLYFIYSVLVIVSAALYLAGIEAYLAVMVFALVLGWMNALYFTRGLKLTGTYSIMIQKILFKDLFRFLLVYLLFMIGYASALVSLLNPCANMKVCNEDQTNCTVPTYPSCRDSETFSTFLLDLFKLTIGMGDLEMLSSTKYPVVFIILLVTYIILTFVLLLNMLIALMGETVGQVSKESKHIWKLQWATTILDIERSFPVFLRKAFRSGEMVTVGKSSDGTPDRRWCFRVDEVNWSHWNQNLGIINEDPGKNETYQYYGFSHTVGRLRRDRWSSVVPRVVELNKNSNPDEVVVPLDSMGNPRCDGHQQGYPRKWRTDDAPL

[5] = molecular target: Voltage-dependent L-type calcium channel subunit alpha-1C (Homo sapiens, UniProt Q13936); test: Inhibition of CaV1.2 channel (unknown origin) by patch express-based electrophysiology assay
Sequence of Voltage-dependent L-type calcium channel subunit alpha-1C (Q13936 whole entry): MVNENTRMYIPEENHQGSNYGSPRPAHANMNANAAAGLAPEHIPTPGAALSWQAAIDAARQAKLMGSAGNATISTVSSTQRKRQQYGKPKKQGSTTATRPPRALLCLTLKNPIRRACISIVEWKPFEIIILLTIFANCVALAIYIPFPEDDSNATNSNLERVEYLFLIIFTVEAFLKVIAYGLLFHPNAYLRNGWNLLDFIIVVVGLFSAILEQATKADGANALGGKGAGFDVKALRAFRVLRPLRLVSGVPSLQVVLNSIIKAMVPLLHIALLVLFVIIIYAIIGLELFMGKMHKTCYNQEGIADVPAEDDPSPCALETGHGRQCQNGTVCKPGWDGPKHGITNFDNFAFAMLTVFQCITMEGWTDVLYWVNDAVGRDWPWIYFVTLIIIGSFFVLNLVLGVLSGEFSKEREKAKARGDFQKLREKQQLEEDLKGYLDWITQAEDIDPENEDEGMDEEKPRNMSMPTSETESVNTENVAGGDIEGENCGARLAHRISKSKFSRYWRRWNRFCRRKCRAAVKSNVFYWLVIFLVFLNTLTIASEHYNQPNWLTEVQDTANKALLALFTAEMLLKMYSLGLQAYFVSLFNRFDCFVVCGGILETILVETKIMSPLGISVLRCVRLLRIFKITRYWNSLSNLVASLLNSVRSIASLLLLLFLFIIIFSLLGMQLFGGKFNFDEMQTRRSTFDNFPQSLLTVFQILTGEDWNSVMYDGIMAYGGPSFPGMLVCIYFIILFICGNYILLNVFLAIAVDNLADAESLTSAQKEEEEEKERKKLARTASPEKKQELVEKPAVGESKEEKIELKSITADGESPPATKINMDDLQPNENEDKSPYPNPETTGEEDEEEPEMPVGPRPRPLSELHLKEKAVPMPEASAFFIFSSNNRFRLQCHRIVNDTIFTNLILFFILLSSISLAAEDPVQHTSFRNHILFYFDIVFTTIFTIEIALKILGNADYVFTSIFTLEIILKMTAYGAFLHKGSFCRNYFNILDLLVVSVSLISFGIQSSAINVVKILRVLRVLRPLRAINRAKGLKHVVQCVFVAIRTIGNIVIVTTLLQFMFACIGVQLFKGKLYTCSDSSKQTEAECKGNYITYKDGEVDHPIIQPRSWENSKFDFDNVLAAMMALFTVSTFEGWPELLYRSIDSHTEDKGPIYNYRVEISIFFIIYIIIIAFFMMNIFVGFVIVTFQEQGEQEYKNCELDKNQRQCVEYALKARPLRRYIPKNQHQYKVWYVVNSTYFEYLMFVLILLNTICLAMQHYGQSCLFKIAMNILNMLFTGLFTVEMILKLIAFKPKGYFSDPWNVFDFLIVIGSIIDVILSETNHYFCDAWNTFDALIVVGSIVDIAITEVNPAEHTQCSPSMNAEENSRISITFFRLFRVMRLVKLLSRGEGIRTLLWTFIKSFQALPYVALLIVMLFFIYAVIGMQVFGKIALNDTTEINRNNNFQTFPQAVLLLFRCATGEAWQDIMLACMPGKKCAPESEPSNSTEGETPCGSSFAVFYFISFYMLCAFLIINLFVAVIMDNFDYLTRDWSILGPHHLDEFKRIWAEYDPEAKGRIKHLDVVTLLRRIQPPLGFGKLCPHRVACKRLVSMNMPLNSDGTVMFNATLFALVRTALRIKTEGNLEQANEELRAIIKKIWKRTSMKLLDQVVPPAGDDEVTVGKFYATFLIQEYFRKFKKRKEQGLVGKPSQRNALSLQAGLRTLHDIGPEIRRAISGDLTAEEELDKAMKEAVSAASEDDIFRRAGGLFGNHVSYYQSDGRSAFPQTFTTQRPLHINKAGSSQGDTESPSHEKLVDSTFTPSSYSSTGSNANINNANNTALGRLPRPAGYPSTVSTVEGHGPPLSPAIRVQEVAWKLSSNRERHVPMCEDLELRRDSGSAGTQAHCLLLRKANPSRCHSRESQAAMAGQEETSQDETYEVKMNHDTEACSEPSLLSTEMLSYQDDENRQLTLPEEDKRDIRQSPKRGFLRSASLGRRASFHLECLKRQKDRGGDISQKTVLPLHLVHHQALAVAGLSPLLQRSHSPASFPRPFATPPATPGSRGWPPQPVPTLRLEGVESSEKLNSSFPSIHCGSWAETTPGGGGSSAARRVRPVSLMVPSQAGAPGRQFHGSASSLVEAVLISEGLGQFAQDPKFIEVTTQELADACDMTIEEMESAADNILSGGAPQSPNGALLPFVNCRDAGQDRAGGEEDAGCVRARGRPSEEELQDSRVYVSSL

[6] = molecular target: Transient receptor potential cation channel subfamily A member 1 (Homo sapiens, UniProt O75762); test: Inhibition of TRPA1 (unknown origin) by FLIPR assay
Sequence of Transient receptor potential cation channel subfamily A member 1 (O75762 whole entry): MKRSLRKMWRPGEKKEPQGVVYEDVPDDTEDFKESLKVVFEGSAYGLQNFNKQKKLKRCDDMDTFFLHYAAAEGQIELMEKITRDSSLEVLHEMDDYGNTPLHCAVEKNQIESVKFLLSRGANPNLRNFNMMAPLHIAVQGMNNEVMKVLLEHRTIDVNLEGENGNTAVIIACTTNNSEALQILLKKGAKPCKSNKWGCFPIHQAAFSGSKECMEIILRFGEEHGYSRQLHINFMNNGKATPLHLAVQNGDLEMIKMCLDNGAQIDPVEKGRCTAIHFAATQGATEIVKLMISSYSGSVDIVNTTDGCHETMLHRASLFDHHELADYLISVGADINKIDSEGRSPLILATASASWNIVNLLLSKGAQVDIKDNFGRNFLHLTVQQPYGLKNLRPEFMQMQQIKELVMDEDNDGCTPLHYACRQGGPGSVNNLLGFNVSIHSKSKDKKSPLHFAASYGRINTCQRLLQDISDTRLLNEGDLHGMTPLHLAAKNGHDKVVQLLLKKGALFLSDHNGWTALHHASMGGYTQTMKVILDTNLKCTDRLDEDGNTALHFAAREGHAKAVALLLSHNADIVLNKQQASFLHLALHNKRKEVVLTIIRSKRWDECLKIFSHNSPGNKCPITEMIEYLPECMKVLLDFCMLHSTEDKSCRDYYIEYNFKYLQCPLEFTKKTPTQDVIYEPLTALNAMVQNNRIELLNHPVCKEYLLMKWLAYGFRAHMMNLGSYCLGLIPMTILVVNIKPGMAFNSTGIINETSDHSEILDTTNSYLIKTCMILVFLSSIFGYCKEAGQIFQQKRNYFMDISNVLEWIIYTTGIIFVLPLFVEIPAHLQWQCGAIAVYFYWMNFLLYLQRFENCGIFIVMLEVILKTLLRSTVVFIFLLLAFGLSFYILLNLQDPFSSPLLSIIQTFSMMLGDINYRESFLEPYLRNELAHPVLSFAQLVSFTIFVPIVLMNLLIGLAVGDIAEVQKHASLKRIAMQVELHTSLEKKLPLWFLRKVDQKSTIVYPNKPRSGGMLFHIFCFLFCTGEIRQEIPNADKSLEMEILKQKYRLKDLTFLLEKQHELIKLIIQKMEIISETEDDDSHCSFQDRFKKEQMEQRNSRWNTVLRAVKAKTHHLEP

[7] = molecular target: Transient receptor potential cation channel subfamily V member 1 (Homo sapiens, UniProt Q8NER1); test: Inhibition of TRPV1 (unknown origin) by FLIPR assay
Sequence of Transient receptor potential cation channel subfamily V member 1 (Q8NER1 whole entry): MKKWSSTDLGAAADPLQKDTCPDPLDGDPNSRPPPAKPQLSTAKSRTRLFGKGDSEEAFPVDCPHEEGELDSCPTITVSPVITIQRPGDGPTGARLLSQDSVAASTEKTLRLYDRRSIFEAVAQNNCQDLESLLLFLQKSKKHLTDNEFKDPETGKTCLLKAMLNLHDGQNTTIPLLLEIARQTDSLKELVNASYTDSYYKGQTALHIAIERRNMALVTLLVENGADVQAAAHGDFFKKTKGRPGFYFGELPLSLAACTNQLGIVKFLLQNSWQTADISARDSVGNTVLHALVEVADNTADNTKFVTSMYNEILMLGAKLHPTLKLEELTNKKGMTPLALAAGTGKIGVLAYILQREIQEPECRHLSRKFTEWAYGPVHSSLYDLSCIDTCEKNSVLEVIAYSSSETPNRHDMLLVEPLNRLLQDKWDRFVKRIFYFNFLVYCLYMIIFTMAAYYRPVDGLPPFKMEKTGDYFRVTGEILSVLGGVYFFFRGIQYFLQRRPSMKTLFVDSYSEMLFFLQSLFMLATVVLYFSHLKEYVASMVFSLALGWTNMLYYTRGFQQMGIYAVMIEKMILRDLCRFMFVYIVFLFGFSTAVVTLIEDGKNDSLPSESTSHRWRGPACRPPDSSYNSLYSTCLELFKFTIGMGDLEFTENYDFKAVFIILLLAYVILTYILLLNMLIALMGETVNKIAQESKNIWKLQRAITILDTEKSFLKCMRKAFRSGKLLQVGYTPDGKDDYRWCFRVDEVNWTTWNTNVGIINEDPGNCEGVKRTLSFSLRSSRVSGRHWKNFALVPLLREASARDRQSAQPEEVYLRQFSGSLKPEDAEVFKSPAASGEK

[8] = Oral bioavailability in rat at 0.82 mg/kg; assay type: ADME, organism-based; details: in vivo
[9] = Mean residence time in rat at 0.82 mg/kg, iv; assay type: ADME, organism-based; design: dose 0.82 mg/kg, route intravenous; details: in vivo
Rattus norvegicus [10] = test: Dose normalized AUC in rat at 0.82 mg/kg, iv; assay type: ADME, organism-based; design: dose 0.82 mg/kg, route intravenous; details: in vivo
[11] = Cmax in rat at 0.82 mg/kg, iv; assay type: ADME, organism-based; design: dose 0.82 mg/kg, route intravenous; details: in vivo
[12] = Clearance in rat at 0.82 mg/kg, iv; assay type: ADME, organism-based; design: dose 0.82 mg/kg, route intravenous; details: in vivo
[13] = Oral bioavailability in rat at 0.86 mg/kg; assay type: ADME, organism-based; details: in vivo
[14] = Mean residence time in rat at 0.86 mg/kg, iv; assay type: ADME, organism-based; design: dose 0.86 mg/kg, route intravenous; details: in vivo
Rattus norvegicus [15] = test: Dose normalized AUC in rat at 0.86 mg/kg, iv; assay type: ADME, organism-based; design: dose 0.86 mg/kg, route intravenous; details: in vivo
[16] = Cmax in rat at 0.86 mg/kg, iv; assay type: ADME, organism-based; design: dose 0.86 mg/kg, route intravenous; details: in vivo
[17] = Clearance in rat at 0.86 mg/kg, iv; assay type: ADME, organism-based; design: dose 0.86 mg/kg, route intravenous; details: in vivo
[18] = molecular target: Voltage-gated inwardly rectifying potassium channel KCNH2 (Homo sapiens, UniProt Q12809); test: Inhibition of human ERG channel by patch express-based electrophysiology assay
[19] = Oral bioavailability in rat at 1.04 mg/kg; assay type: ADME, organism-based; details: in vivo
Rattus norvegicus [20] = test: Dose normalized AUC in rat at 1.04 mg/kg, iv; assay type: ADME, organism-based; design: dose 1.04 mg/kg, route intravenous; details: in vivo
[21] = Clearance in rat at 1.04 mg/kg, iv; assay type: ADME, organism-based; design: dose 1.04 mg/kg, route intravenous; details: in vivo
[22] = Mean residence time in rat at 1.04 mg/kg, iv; assay type: ADME, organism-based; design: dose 1.04 mg/kg, route intravenous; details: in vivo
[23] = Cmax in rat at 1.04 mg/kg, iv; assay type: ADME, organism-based; design: dose 1.04 mg/kg, route intravenous; details: in vivo
Rattus norvegicus [24] = test: Volume of distribution at steady state in rat at 0.92 mg/kg, iv; assay type: ADME, organism-based; design: dose 0.92 mg/kg, route intravenous; details: in vivo
[25] = Oral bioavailability in rat at 0.92 mg/kg; assay type: ADME, organism-based; details: in vivo
Rattus norvegicus [26] = test: Dose normalized AUC in rat at 0.92 mg/kg, iv; assay type: ADME, organism-based; design: dose 0.92 mg/kg, route intravenous; details: in vivo
Rattus norvegicus [27] = test: Mean residence time in rat at 0.92 mg/kg, iv; assay type: ADME, organism-based; design: dose 0.92 mg/kg, route intravenous; details: in vivo
[28] = Cmax in rat at 0.92 mg/kg, iv; assay type: ADME, organism-based; design: dose 0.92 mg/kg, route intravenous; details: in vivo
[29] = Volume of distribution at steady state in rat at 1.06 mg/kg, iv; assay type: ADME, organism-based; design: dose 1.06 mg/kg, route intravenous; details: in vivo, read-out: Vdss
[30] = Oral bioavailability in rat at 1.06 mg/kg; assay type: ADME, organism-based; details: in vivo
Rattus norvegicus [31] = test: Dose normalized AUC in rat at 1.06 mg/kg, iv; assay type: ADME, organism-based; design: dose 1.06 mg/kg, route intravenous; details: in vivo
[32] = Mean residence time in rat at 1.06 mg/kg, iv; assay type: ADME, organism-based; design: dose 1.06 mg/kg, route intravenous; details: in vivo
[33] = Cmax in rat at 1.06 mg/kg, iv; assay type: ADME, organism-based; design: dose 1.06 mg/kg, route intravenous; details: in vivo
[34] = Clearance in rat at 1.06 mg/kg, iv; assay type: ADME, organism-based; design: dose 1.06 mg/kg, route intravenous; details: in vivo

Cc1sc(Nc2ccc(Cl)cc2F)nc1C(=O)N1CCCC(C)C1C (racemic)
IC50 [1]: 0.05 µM
IC50 [2]: 0.25 µM

Cc1sc(Nc2ccc(Cl)cc2F)nc1C(=O)N1CCC[C@H](C)[C@@H]1C
IC50 [3]: 3.3 µM
IC50 [4]: 12.5 µM
IC50 [5]: 10 µM
IC50 [6]: 25 µM
IC50 [7]: 6.3 µM
bioavailability [8]: 64%
MRT [9]: 0.7 h
AUC/dose (Rattus norvegicus [10]): 0.1 kg·L·h
Cmax [11]: 120 ng/mL
clearance [12]: 150 mL/min/kg
IC50 [1]: 0.016 µM
IC50 [2]: 0.1 µM

Cc1ccc(Nc2nc(C(=O)N3CCC(C4CCCCC4)CC3)cs2)cc1
IC50 [1]: 4 µM
IC50 [2]: 6.3 µM

CC1CCCN(C(=O)c2nc(Nc3cc4c(cc3F)OCO4)sc2Cl)C1C (stereo unspecified)
bioavailability [13]: 7%
MRT [14]: 0.4 h
AUC/dose (Rattus norvegicus [15]): 0.3 kg·L·h
Cmax [16]: 490 ng/mL
clearance [17]: 46 mL/min/kg
IC50 [1]: 0.004 µM
IC50 [2]: 0.032 µM

Cc1ccc(Nc2nc(C(=O)N3CCCC(C)C3C)cs2)cc1 (stereo unspecified)
IC50 [3]: 50 µM
IC50 [18]: > 50 µM
IC50 [4]: 6.3 µM
IC50 [5]: 10 µM
IC50 [6]: 8 µM
IC50 [7]: 1.26 µM
bioavailability [19]: < 1%
AUC/dose (Rattus norvegicus [20]): 0.2 kg·L·h
clearance [21]: 75 mL/min/kg
MRT [22]: 2.8 h
Cmax [23]: 310 ng/mL
IC50 [1]: 0.08 µM
IC50 [2]: 0.25 µM

Cc1ccc(Nc2nc(C(=O)N3CCCCC3c3ccccc3)cs2)cc1 (stereo unspecified)
IC50 [1]: 15.8 µM
IC50 [2]: 12.6 µM

CC1c2ccccc2CCN1C(=O)c1csc(Nc2ccc3c(c2)OCO3)n1 (stereo unspecified)
IC50 [1]: 0.063 µM
IC50 [2]: 0.316 µM

Cc1ccc(Nc2nc(C(=O)N3CCCC(c4ccccc4)C3)cs2)cc1 (stereo unspecified)
IC50 [1]: > 25 µM
IC50 [2]: > 25 µM

Cc1sc(Nc2ccc(Cl)cc2F)nc1C(=O)N1CCc2ncccc2C1
Vdss (Rattus norvegicus [24]): 0.7 L/kg
bioavailability [25]: 100%
AUC/dose (Rattus norvegicus [26]): 0.85 kg·h/L
MRT (Rattus norvegicus [27]): 1.6 h
Cmax [28]: 510 ng/mL
IC50 [1]: 6.3 µM
IC50 [2]: 20 µM

Cc1sc(Nc2ccc3c(c2)OCO3)nc1C(=O)N1CCc2ncccc2C1C (stereo unspecified)
Vd [29]: 0.7 L/kg
bioavailability [30]: 65%
AUC/dose (Rattus norvegicus [31]): 1.86 kg·h/L
MRT [32]: 1.3 h
Cmax [33]: 1800 ng/mL
clearance [34]: 9.3 mL/min/kg
IC50 [1]: 1.26 µM
IC50 [2]: 10 µM

CC1CCN(C(=O)c2csc(Nc3ccc(Cl)cc3F)n2)CC1
IC50 [1]: 0.63 µM
IC50 [2]: 1.6 µM

COc1ccc(Nc2nc(C(=O)N3CCC(C)CC3)cs2)cc1
IC50 [1]: 0.8 µM
IC50 [2]: 0.8 µM
